Experiments:
[1] = test system: cells from brain tissue pieces; assay: cell separation by cell permeability of NBD-labeled sugars, brain-derived cells; format: cell-based; conditions: 15 minutes at 37° C., 200 cells processed
Excerpt: In Example 2 for cell separation, a case is described in which differences of cells are recognized by measuring differences in cell permeability of a plurality of substrates and then discrete cells are separated. In this example, cells are identified and separated by observing the cell permeability of galactose or fructose against the glucose described in the aforementioned document. Generally, glucose is often used as an energy source for cells, but galactose or fructose is not directly consumed. For instance, when Escherichia coli is cultured in a mixed culture medium of glucose and fructose, glucose is consumed at first, and then […] is consumed when glucose decreases. Therefore, for instance, by measuring cell permeability of various types of substrates using a quantity of intaked glucose as control data, cell separation reflecting the state of cell more accurately can be performed.
In this example, a glucose labeling derivative of 6-(N-(7-nitrobenz-2-oxa-1.3-diazol-4-yl)amino) sugar (Ex465/Em540) (NBD-labeled sugar) is used. […] The culture fluid is exchanged with that not containing the NBD-labeled sugar, and the sample is immediately added to a cell sorter independently developed by the inventors, and cells with the relative fluorescence intensity of 500 or more are separated.

[2] = test system: cells from a lever tissue; assay: cell separation by cell permeability of NBD-labeled sugars, lever tissue cells; format: cell-based
[3] = test system: blood from a patient suffering from leukemia; assay: separation of cells causing leukemia by intake of labeled amino acids; format: cell-based, human
Protocol: Descriptions are provided below for a case in which cells causing leukemia are separated by applying the technique in Example 3 for cell separation. NDB folic acid (Ex465/Em540), 4,4-difluoro-1,3,5,7-tetramethyl-4-bora-3a,4a-diaza-s-indacene-8-propionate labeled ASn, and 4,4-difluoro-5-(2-pyrrole)-4-bora-3a,4a-diaza-s-indacene-3-propionate labeled Thr are added to blood from a patient suffering from leukemia, and the mixture is incubated for 30 minutes at 37° C. Using the NDB folic acid (Ex465/Em540) as a control, the amounts of intaked 4,4-difluoro-3,5,7-tetramethyl-4-bora-3a,4a-diaza-s-indacene-8-propionate labeled ASn (Ex493/Em503) and intaked 4,4-difluoro-5-(2-pyrrole)-4-bora-3a,4a-diaza-s-indacene-3-propionate labeled Thr are measured by detecting the fluorescent intensities of various derivatives of 4,4-difluoro-4-bora-3a,4a-diaza-s-indacene against the fluorescence intensity generated by NDB-labeled folic acid, and cells having high fluorescence intensity with the fluorescence wavelength of around 503 nm, namely cells having a large intake amount of the 4,4-difluoro-1,3,5,7-tetramethyl-4-bora-3a,4a-diaza-s-indacene-8-propionate labeled ASn are sorted with a cell sorter.

[4] = test system: neurocyte / pulsating myocardial cell; conditions: added to culture fluid of the neurocyte side only
Protocol: In Example 3, examination is made for whether a beat cycle of the pulsating myocardial cell 2-1 kept in the cell holding zone 2 changes when potassium or glucose, or suspected endocrine disrupter is added to the culture fluid of the neurocyte 3-2 in the cell holding zone 3, or the content is increased.
At first, the same culture fluid is filled in the culture fluid baths 21-1, 21-2, and a beat cycle of the pulsating myocardial cell 2-1 is checked to obtain a myocardial pulsation pattern showing the substantially same cycle as shown in FIG. 49(A).

For `O=[N+]([O-])c1ccc(NCC2OC(O)C(O)C(O)[C@@H]2O)c2nonc12` (some centres unmarked) [NBD-labeled glucose], the “cells obtained with the relative fluorescence intensity of 500 or more” value [1] was 66 cells and the “cells obtained with the relative fluorescence intensity of 500 or more” value [2] was 46 cells.

With “4,4-difluoro-1,3,5,7-tetramethyl-4-bora-3a,4a-diaza-s-indacene-8-propionate labeled ASn” the “cancerous leukocytes among the sorted cells with large intake, histological examination” value ([3]; 30 minutes at 37° C., fluorescence around 503 nm, NDB folic acid as control) was no less than 95%.

For `NCCc1ccc(O)c(O)c1` [dopamine, 2-dihydroxyphenylethylamine], the “beat cycle of the pulsating myocardial cell” value [4] was “disturbance in the beat cycle”.

With “4,4-difluoro-5-(2-pyrrole)-4-bora-3a,4a-diaza-s-indacene-3-propionate labeled Thr” the “intake rate in normal cells against cancer cells” value ([3]; compared to labeled Asn) was “not so remarkable”.
